Test results published in ChEMBL document CHEMBL6087446, “Hypoxia Activated Nitric Oxide Donor Compounds for the Prevention and Treatment of Myocardial Hypoxia-Induced Injury” (J Med Chem, 2025).
Active and inactive are the calls of the source. The calls are words filed in the database; no cut-off is given here.

Tests used:
[1] = Toxicity in isoproterenol-induced male C57 mouse assessed as body weight change at 8 mg/kg, ip once daily for 3 consecutive days; type: organism-based; details: in vivo, 72 h, time 3 day
Mus musculus [2] = experiment: Prevention of myocardial hypoxia injury in isoproterenol-induced male C57 mouse myocardial injury model assessed as pathological myocardial change by absence of infarction areas at 8 to 16 mg/kg, ip once daily for 3 consecutive days by hematoxylin and eosin staining based analysis; type: functional, organism-based; details: dose 8-16 mg/kg, time 3.0 day
H9c2 [3] = experiment: Prevention of hypoxia-induced decrease in ATP level in rat H9c2 cells at 10 uM […] (Rvb =- 19.6 nmol/mg); type: ADME, cell-based; details: h9c2, 10 µM
Mus musculus [4] = experiment: Prevention of myocardial hypoxia injury in isoproterenol-induced male C57 mouse myocardial injury model assessed as heart weight ratio at 8 mg/kg, ip once daily for 3 consecutive days (reference value: 0.60%); type: functional; details: time 3 day
Mus musculus [5] = experiment: Prevention of myocardial hypoxia injury in isoproterenol-induced male C57 mouse myocardial injury model assessed as pathological myocardial change by clear vascular boundaries at 8 to 16 mg/kg, ip once daily for 3 consecutive days by hematoxylin and eosin staining based analysis; type: functional, organism-based; details: dose 8-16 mg/kg, time 3.0 day
Mus musculus [6] = experiment: Prevention of myocardial hypoxia injury in isoproterenol-induced male C57 mouse myocardial injury model assessed as reduction in creatine kinase-MB (CK-MB) at 8 to 16 mg/kg, ip once daily for 3 consecutive days by immunohistochemistry; type: functional, organism-based; details: dose 8-16 mg/kg, time 3.0 day
[7] = Half life in female Balb/c mouse at 8 mg/kg, ip measured up to 24 hrs by LC-MS/MS analysis; type: ADME, organism-based; details: in vivo
[8] = AUC (0 to infinity) in female Balb/c at 8 mg/kg, ip mouse measured up to 24 hrs by LC-MS/MS analysis; type: ADME, organism-based; details: in vivo
Mus musculus [9] = experiment: Prevention of myocardial hypoxia injury in isoproterenol-induced male C57 mouse myocardial injury model assessed as reduction in cardiac troponin (CK) at 5 mg/kg, ip once daily for 3 consecutive days by immunohistochemistry; type: functional, organism-based; details: time 3.0 day
H9c2 [10] = experiment: Prevention of hypoxia-induced TSP1 expression in rat H9c2 cells assessed as inhibition of TSP1 overexpression at 10 uM measured after 4 hrs incubation; type: functional, cell-based
H9c2 [11] = experiment: Prevention of hypoxia-induced mTORC1 expression in rat H9c2 cells assessed as inhibition of mTORC1 overexpression at 10 uM measured after 4 hrs incubation; type: functional, cell-based
Mus musculus [12] = experiment: Prevention of myocardial hypoxia injury in isoproterenol-induced male C57 mouse myocardial injury model assessed as decrease in myocardial size at 8 mg/kg, ip once daily for 3 consecutive days (reference value: 6.47 mm); type: functional; details: time 3 day

CN(N=O)c1ccc(OCc2ccc([N+](=O)[O-])c(F)c2)cc1
Activity [1]: Non-toxic | Activity (Mus musculus [2]): Active | Activity (H9c2 [3]): 37.9 nmol/mg | Activity (Mus musculus [4]): 0.54% | Activity (Mus musculus [5]): Active | Activity (Mus musculus [6]): Active | half-life [7]: 2.39 h | AUC [8]: 640 ng·h/mL | Activity (Mus musculus [9]): Active | Activity (H9c2 [10]): Active | Activity (H9c2 [11]): Active | Activity (Mus musculus [12]): 2.53 mm
